{"source": "patent US9211294B2", "about": "“Phenothiazine compounds for treating mild cognitive impairment” (WisTa Laboratories Ltd., priority 2007, dated 2015)", "key": {"[1]": {"system": "scopolamine-treated NMRI mice", "assay": "Morris water maze spatial reference memory task, reversal of scopolamine-induced cognitive deficits", "assay_type": "in vivo", "conditions": "for Learning / Thigmotaxis / S-T memory: mg/kg i.p.; for S-T memory: probe 1.5 h", "method": "(§1) Female, NMRI mice aged 3-4 months were from Harlan, UK.\nMice were group housed (7-9 per cage) and maintained with light from 7 am-7 pm and experiments carried out in the light phase. […] They were separated into 6 groups to receive drug administrations as follows:\n(§2) The injection volume for drugs was 0.2 ml per 30 g animal weight and they were injected intraperitoneally. The doses were as indicated above.\nThe water maze consisted of a water-filled pool (1.5 m diameter; 20±2° C.) in which a platform submerged 1 cm below water surface was the only means of escape. Mice were released from 4 cardinal sites (South, West, North and East) facing the wall of the pool in random fashion and thus had to acquire spatial knowledge of the exact platform location by spatial mapping procedures using distal cues.\nEach animal was given 6 trials/day and was allowed to swim for a maximum time of 60 seconds and stay 30 seconds on the platform. […] An inter-trial interval of 10-20 minutes was given. The animals were trained for 4 consecutive days and received probe trials (free swim for 60 seconds without platform in the pool) approximately 1.5 and 24 hours post-training to test short and long-term memory, respectively. The behaviour of animals was recorded via an overhead camera and data transmitted to the PC for online storage and analysis (EthoVision basic version 3.0.8. Noldus Information Technology, Netherlands).\nProbe trial data were analysed by one-way ANOVA and the appropriate post-hoc tests (Bonferroni's multiple comparison test or Newman Keuls) were carried out to determine the source of a significant main effect or interaction. Analyses were performed two-tailed and the null hypothesis was […] at probability levels of 5% (p<0.05). Only terms for reliable differences are mentioned in the text for simplicity."}, "[2]": {"system": "mice", "assay_type": "in vivo", "conditions": "for highest effective and safe dose: i.p., mice"}, "[3]": {"conditions": "in vivo, ip"}, "[4]": {"system": "NMRI mice aged 2-3, 6 and 13 months", "assay": "Water maze learning and memory in young and aged NMRI mice", "conditions": "2-3 month mice; 1.5 hours; MTC 1 mg/kg i.p."}, "[5]": {"system": "saline treated NMRI mice", "assay": "Morris water maze spatial reference memory task, drug given after saline (otherwise unimpaired animals, side-effect profiling)", "assay_type": "in vivo", "conditions": "saline then Rivast (0.125), mg/kg i.p.", "method": "as §1\nMice were group housed (7-9 per cage) and maintained with light from 7 am-7 pm and experiments carried out in the light phase. There were 82 mice in total, of which 12 were excluded from the study for circling behaviour during the water maze test. They were separated into 6 groups to receive drug administrations as follows:\nas §2\nBehavioural testing was undertaken using the Morris water maze spatial navigational task (Morris, 1984). […]\nEach animal was given 6 trials/day and was allowed to swim for a maximum time of 60 seconds and stay 30 seconds on the platform. […] The behaviour of animals was recorded via an overhead camera and data transmitted to the PC for online storage and analysis (EthoVision basic version 3.0.8. Noldus Information Technology, Netherlands). […]\nBehavioural data of acquisition learning were analysed by conventional statistics (Graph Pad Prism version 4.01) using factorial repeated measures analysis of variance (ANOVA) with treatment as between-subject and day/trial as within-subject factor followed by planned comparisons between selected groups. […]"}, "[6]": {"assay": "Brain levels of MTC after administration", "conditions": "post administration"}, "[7]": {"conditions": "scopolamine 0.5 mg/kg then rivastigmine 0.5 mg/kg, probe trials"}, "[8]": {"conditions": "scopolamine (0.5) then Rivast (0.1)"}, "[9]": {"conditions": "scopolamine (0.5) then Rivast (0.125)"}, "[10]": {"conditions": "scopolamine (0.5) then Rivast (0.125), listed as Rivast"}, "[11]": {"conditions": "scopolamine (0.5) then Rivast (0.25)"}, "[12]": {"conditions": "scopolamine (0.5) then Rivast (0.25), listed as Rivast"}, "[13]": {"conditions": "scopolamine (0.5) then Rivast (0.5)"}, "[14]": {"conditions": "scopolamine (0.5) then Rivast (0.5), listed as Rivast"}}, "note": "“Also recorded” adds a separate entry of the source. Counter-ions that a name gives are not always drawn."}
{"molecule": "CN(C)c1ccc2nc3ccc(N(C)C)cc3[s+]c2c1", "note": "[MTC, methyl-thioninium chloride]", "values": [{"measurement": "saturation of dose-response relationship for learning and memory formation", "setting": "[1]; linear dose-response", "value": "about 4 mg/kg"}, {"measurement": "highest effective and safe dose", "setting": "[2]", "value": 4, "unit": "mg/kg"}, {"measurement": "time of peak brain levels", "setting": "[3]", "value": "30 to 60", "unit": "min"}, {"measurement": "time spent in the target quadrant", "setting": "[4]", "value": "no effect"}]}
{"molecule": "CCN(C)C(=O)Oc1cccc([C@H](C)N(C)C)c1", "note": "[rivastigmine, rivastigmine tartrate]", "values": [{"measurement": "dose required to fully restore spatial learning", "setting": "[1]; administered acutely, scopolamine-treated NMRI mice", "value": "> 0.125", "unit": "mg/kg"}, {"measurement": "overall learning between day 1 and 4 (overall reduction in path length)", "setting": "[1]; scopolamine 0.5 mg/kg then rivastigmine 0.1 mg/kg", "value": "substantial overall improvement"}, {"measurement": "thigmotaxis during memory phase", "setting": "[1]; scopolamine 0.5 mg/kg then rivastigmine 0.5 mg/kg", "value": "not significantly different from either scopolamine or saline"}, {"measurement": "logarithmic transform of pathlength (advanced analysis)", "setting": "[1]; scopolamine 0.5 mg/kg then rivastigmine 0.5 mg/kg i.p., by day 4", "value": "reverse the deficit"}, {"measurement": "proportion of time spent in target quadrant (probe trials)", "setting": "[1]; scopolamine 0.5 mg/kg then rivastigmine 0.5 mg/kg, pooled day 4 and day 5", "value": "did not reverse"}, {"measurement": "latency (composite parameter, temporal accuracy)", "setting": "[1]; [7]", "value": "no effect at all"}, {"measurement": "localisation (composite parameter, spatial accuracy)", "setting": "[1]; [7]", "value": "not able to reverse the deficit"}, {"measurement": "Learning", "setting": "[1]; [8]", "value": "ineffective"}, {"measurement": "Thigmotaxis", "setting": "[1]; [8]", "value": "↓"}, {"measurement": "Learning", "setting": "[1]; scopolamine (0.5) then Rivast (0.1), listed as Rivast", "value": "↓"}, {"measurement": "S-T memory", "setting": "[1]; [8]", "value": "↓"}, {"measurement": "Thigmotaxis", "setting": "[1]; [9]", "value": "↑"}, {"measurement": "Learning", "setting": "[1]; [10]", "value": "↑"}, {"measurement": "Learning", "setting": "[1]; scopolamine (0.5) then Rivast (0.125), listed as Rivastigmine", "value": "fully reversed"}, {"measurement": "S-T memory", "setting": "[1]; [9]", "value": "spatial bias was established"}, {"measurement": "S-T memory", "setting": "[1]; [10]", "value": "↑"}, {"measurement": "Learning", "setting": "[1]; [11]", "value": "only partial"}, {"measurement": "Thigmotaxis", "setting": "[1]; [11]", "value": "↓"}, {"measurement": "Learning", "setting": "[1]; [12]", "value": "↑↓"}, {"measurement": "S-T memory", "setting": "[1]; [11]", "value": "memory deficit"}, {"measurement": "S-T memory", "setting": "[1]; [12]", "value": "↓"}, {"measurement": "Thigmotaxis", "setting": "[1]; [13]", "value": "reversed"}, {"measurement": "Learning", "setting": "[1]; [14]", "value": "↑"}, {"measurement": "Thigmotaxis", "setting": "[1]; [14]", "value": "↑"}, {"measurement": "Learning", "setting": "[1]; scopolamine (0.5) then Rivast (0.5), listed as Rivastigmine", "value": "completely reversed; also recorded: fully reversed"}, {"measurement": "S-T memory", "setting": "[1]; [13]", "value": "memory deficit"}, {"measurement": "S-T memory", "setting": "[1]; [14]", "value": "↓"}, {"measurement": "Learning", "setting": "[5]", "value": "did not alter spatial learning"}, {"measurement": "S-T memory", "setting": "[5]; probe 1.5 h", "value": "↑↓"}, {"measurement": "adverse effects (motor coordination problems, ataxia, brief episodes of convulsions)", "setting": "[2]; doses of 0.5 and 0.25 mg/kg, in the absence of scopolamine treatment", "value": "severe adverse effects"}, {"measurement": "highest effective and safe dose", "setting": "[2]", "value": 0.125, "unit": "mg/kg"}]}
{"molecule": "methyl-thioninium chloride [MTC]", "values": [{"measurement": "time at which brain levels are maximal", "setting": "[6]", "value": "1 to 4", "unit": "h"}]}
